Source: patent US9428519B2, “Acylated derivative of homoharringtonine, preparation method therefor, and application thereof” (HANGZHOU BENSHENG PHARMACEUTICAL CO., LTD., priority 2011, dated 2016)
≈ marks a conversion by molar mass, not a printed value.

What was measured:
[1] = system: CaES-17 (esophageal cancer cell); experiment: MTT growth inhibition of human solid tumor cells, 72 h; assay type: cell-based
Experimental: (§1) Human solid tumor cell lines: Hep-2 (laryngeal carcinoma), A549 (human lung cancer), CaES-17 (esophageal cancer cell), PC-3 (prostate cancer), CNE (nasopharyngeal carcinoma cell), and SK-OV-3 (ovarian cancer cell), all of which are purchased from China Center For Type Culture Collection; RKO (human colon adenocarcinoma cell), MGC 803 (human gastric cancer cell), MG63 (osteosarcoma) and U87 MG (malignant glioma cell), all of which are purchased from Fuxiang Bio-tech Co. Ltd., Shanghai, China; PANC-1 (pancreatic cancer), Huh7 (human liver cancer cell), Becap37 (human breast cancer cell), and Hela (human cervical cancer cell), all of which are donated by Cancer Research Institute of Zhejiang University, China.
(§2) Obtaining 4000 well-growing human solid tumor cells and inoculating them into wells of a 96-well cell culture plate. The culture medium is DMEM High Glucose cell culture medium containing 10% fetal bovine serum. The plate is placed in a carbon dioxide cell incubator (5% CO2) at 37° C. and incubated for 24 hours. After adding the homoharringtonine derivatives of different concentration and mixing uniformly, the plate is placed in a carbon dioxide cell incubator (5% CO2) at 37° C. and incubated for 72 hours. Then the viable cell concentration is determined by the MTT method and the cell viability (%) after drug treatment is calculated. In this experiment, the cell viability of control group (not treated with any compound) is set as 100%.

[2] = system: PANC-1 (pancreatic cancer); experiment: as above; assay type: cell-based
Experimental: as §1, §2

[3] = system: MG63 (osteosarcoma); experiment: as above; assay type: cell-based
Experimental: as §1, §2

[4] = system: PC-3 (prostate cancer); experiment: as above; assay type: cell-based; settings: MTT
Experimental: as §1, §2

[5] = system: A549 (human lung cancer); experiment: as above; assay type: cell-based
Experimental: as §1, §2

[6] = system: Huh7 (human liver cancer cell); experiment: as above; assay type: cell-based
Experimental: as §1, §2

[7] = system: SK-OV-3 (ovarian cancer cell); experiment: as above; assay type: cell-based
Experimental: as §1, §2

[8] = system: Becap37 (human breast cancer cell); experiment: as above; assay type: cell-based
Experimental: as §1, §2

[9] = system: U87 MG (malignant glioma cell); experiment: as above; assay type: cell-based
Experimental: as §1, §2

[10] = system: Hela (human cervical cancer cell); experiment: as above; assay type: cell-based; settings: MTT
Experimental: as §1, §2

[11] = system: Hep-2 (laryngeal carcinoma); experiment: as above; assay type: cell-based
Experimental: as §1, §2

[12] = system: RKO (human colon adenocarcinoma cell); experiment: as above; assay type: cell-based; settings: MTT
Experimental: as §1, §2

[13] = system: MGC 803 (human gastric cancer cell); experiment: as above; assay type: cell-based
Experimental: as §1, §2

[14] = system: CNE (nasopharyngeal carcinoma cell); experiment: as above; assay type: cell-based; settings: MTT
Experimental: as §1, §2

[15] = system: Jurkat (acute lymphoblastic leukemia, ALL); experiment: MTT growth inhibition of leukemia cells, 72 h; assay type: cell-based, human
Description: (§3) Leukemia cell lines: leukemia cell lines: K562/adr (drug-resistant, chronic myeloid leukemia, CML), NB4 (acute promyelocytic leukemia, AML), Kasumi-1 (acute myeloid leukemia M2 type, AML-M2), Jurkat (acute lymphoblastic leukemia, ALL), all of which are donated by Cancer Research Institute of Zhejiang University, China; and H9 (acute lymphoblastic leukemia, ALL), which is purchased from China Center for Type Culture Collection (CCTCC).
(§4) Reagents: The standard sample of homoharringtonine (HHT) is purchased from Taihua Natural Plant Pharmaceutical Co., Ltd., Shaanxi, China, the homoharringtonine derivatives of the present invention.
(§5) Obtaining 6000 well-growing leukemia cells and inoculating them into wells of a 96-well cell culture plate. The culture medium is the 1640 cell culture medium containing 10% fetal bovine serum. After adding the homoharringtonine derivatives of different concentrations and mixing uniformly, placing the plate in a carbon dioxide cell incubator (5% CO2) at 37° C. and incubated for 72 hours. Then the viable cell concentration is determined by the MTT method. In this experiment, the cell viability in control group (not treated with any compound) is set as 100%. On such basis, the cell viability (%) after treatment and the 50% inhibiting concentration of the compound for the leukemia cell growth at 72 hours (IC50 value of 72 hours) are calculated.

[16] = system: K562/adr (drug-resistant, chronic myeloid leukemia, CML); experiment: MTT growth inhibition of leukemia cells, 72 h; assay type: cell-based, human; settings: MTT
Description: as §3, §4, §5

[17] = system: H9 (acute lymphoblastic leukemia, ALL); experiment: MTT growth inhibition of leukemia cells, 72 h; assay type: cell-based, human; settings: MTT
Description: as §3, §4, §5

[18] = system: NB4 (acute promyelocytic leukemia, AML); experiment: MTT growth inhibition of leukemia cells, 72 h; assay type: cell-based, human; settings: MTT
Description: as §3, §4, §5

[19] = system: Kasumi-1 (acute myeloid leukemia M2 type, AML-M2); experiment: MTT growth inhibition of leukemia cells, 72 h; assay type: cell-based, human
Description: as §3, §4, §5

[20] = system: RPMI8226 (multiple myeloma); experiment: MTT growth inhibition of multiple myeloma cells, 72 h; assay type: cell-based, human
Experimental: Multiple myeloma and lymphoma cell lines: RPMI8226 (multiple myeloma), purchased from Fuxiang Bio-tech Co. Ltd., Shanghai, China.
as §5

COC(=O)C[C@](O)(CCCC(C)(C)OC(=O)C1CCCCC1)C(=O)O[C@@H]1C(OC)=C[C@]23CCCN2CCc2cc4c(cc2[C@H]13)OCO4 [BS-HH-076]
IC50 CaES-17 [1]: 0.039 µg/mL (≈ 0.0595 µM) | IC90 CaES-17 [1]: 16 µg/mL (≈ 24.4 µM) | IC50 PANC-1 ([2]; MTT): 0.042 µg/mL (≈ 0.064 µM) | IC90 PANC-1 ([2]; MTT): >16 µg/mL | IC50 MG 63 ([3]; MTT): 0.022 µg/mL (≈ 0.0335 µM) | IC90 MG 63 ([3]; MTT): 1.72 µg/mL (≈ 2.62 µM) | IC50 PC-3 [4]: 0.03 µg/mL (≈ 0.0457 µM) | IC90 PC-3 [4]: >16 µg/mL | IC50 A549 [5]: 0.03 µg/mL (≈ 0.0457 µM) | IC90 A549 [5]: >16 µg/mL | IC50 Huh7 [6]: 0.008 µg/mL (≈ 0.0122 µM) | IC90 Huh7 [6]: 0.096 µg/mL (≈ 0.146 µM) | IC50 SK-OV-3 ([7]; MTT): 0.031 µg/mL (≈ 0.0473 µM) | IC90 SK-OV-3 ([7]; MTT): >16 µg/mL | IC50 Becap37 [8]: 0.01 µg/mL (≈ 0.0152 µM) | IC90 Becap37 [8]: 6.4 µg/mL (≈ 9.76 µM) | IC50 U87 MG [9]: 0.009 µg/mL (≈ 0.0137 µM) | IC90 U87 MG [9]: 0.067 µg/mL (≈ 0.102 µM) | IC50 Hela [10]: 0.011 µg/mL (≈ 0.0168 µM) | IC90 Hela [10]: 10.25 µg/mL (≈ 15.6 µM) | IC50 Hep-2 [11]: 0.012 µg/mL (≈ 0.0183 µM) | IC90 Hep-2 [11]: >16 µg/mL | IC50 RKO [12]: 0.008 µg/mL (≈ 0.0122 µM) | IC90 RKO [12]: 0.02 µg/mL (≈ 0.0305 µM) | IC50 MGC 803 [13]: 0.025 µg/mL (≈ 0.0381 µM) | IC90 MGC 803 [13]: 0.098 µg/mL (≈ 0.149 µM) | IC50 CNE [14]: 0.029 µg/mL (≈ 0.0442 µM) | IC90 CNE [14]: >16 µg/mL | IC50 Jurkat [15]: 0.006 µg/mL (≈ 0.00915 µM) | IC90 Jurkat [15]: 6.24 µg/mL (≈ 9.52 µM) | IC50 K562/adr [16]: 0.02 µg/mL (≈ 0.0305 µM) | IC90 K562/adr [16]: 0.21 µg/mL (≈ 0.32 µM) | IC50 H9 [17]: 0.01 µg/mL (≈ 0.0152 µM) | IC90 H9 [17]: 0.04 µg/mL (≈ 0.061 µM) | IC50 NB4 [18]: 0.009 µg/mL (≈ 0.0137 µM) | IC90 NB4 [18]: 0.022 µg/mL (≈ 0.0335 µM) | IC50 Kasumi-1 ([19]; MTT): 0.006 µg/mL (≈ 0.00915 µM) | IC90 Kasumi-1 ([19]; MTT): 0.023 µg/mL (≈ 0.0351 µM) | IC50 RPMI8226 ([20]; MTT): 0.007 µg/mL (≈ 0.0107 µM) | IC90 RPMI8226 ([20]; MTT): 0.034 µg/mL (≈ 0.0518 µM)

COC(=O)C[C@](O)(CCCC(C)(C)OC(=O)C1CC1)C(=O)O[C@@H]1C(OC)=C[C@]23CCCN2CCc2cc4c(cc2[C@H]13)OCO4 [BS-HH-062]
IC50 ([1]; Homo sapiens, CaEs17): 0.058 µg/mL (≈ 0.0945 µM) | IC90 ([1]; Homo sapiens, CaEs17): 16 µg/mL (≈ 26.1 µM) | IC50 ([2]; Homo sapiens, PANC-1, MTT): 0.044 µg/mL (≈ 0.0717 µM) | IC90 ([2]; Homo sapiens, PANC-1, MTT): > 16 µg/mL | IC50 ([3]; Homo sapiens, MG-63, MTT): 0.012 µg/mL (≈ 0.0196 µM) | IC90 ([3]; Homo sapiens, MG-63, MTT): 0.77 µg/mL (≈ 1.25 µM) | IC50 ([4]; Homo sapiens): 0.11 µg/mL (≈ 0.179 µM) | IC90 ([4]; Homo sapiens): > 16 µg/mL | IC50 ([5]; Homo sapiens, A549): 0.04 µg/mL (≈ 0.0652 µM) | IC90 ([5]; Homo sapiens, A549): > 16 µg/mL | IC50 ([6]; Homo sapiens, Huh-7): 0.004 µg/mL (≈ 0.00652 µM) | IC90 ([6]; Homo sapiens, Huh-7): 0.049 µg/mL (≈ 0.0798 µM) | IC50 ([7]; Homo sapiens, SK-OV-3, MTT): 0.12 µg/mL (≈ 0.196 µM) | IC90 ([7]; Homo sapiens, SK-OV-3, MTT): > 16 µg/mL | IC50 ([8]; Homo sapiens): 0.014 µg/mL (≈ 0.0228 µM) | IC90 ([8]; Homo sapiens): 15.6 µg/mL (≈ 25.4 µM) | IC50 ([9]; Homo sapiens, U-87 MG): 0.02 µg/mL (≈ 0.0326 µM) | IC90 ([9]; Homo sapiens, U-87 MG): 0.1 µg/mL (≈ 0.163 µM) | IC50 ([10]; Homo sapiens, HeLa): 0.026 µg/mL (≈ 0.0424 µM) | IC90 ([10]; Homo sapiens, HeLa): 16 µg/mL (≈ 26.1 µM) | IC50 ([11]; Homo sapiens, HEp-2): 0.015 µg/mL (≈ 0.0244 µM) | IC90 ([11]; Homo sapiens, HEp-2): > 16 µg/mL | IC50 ([12]; Homo sapiens): 0.005 µg/mL (≈ 0.00815 µM) | IC90 ([12]; Homo sapiens): 0.025 µg/mL (≈ 0.0407 µM) | IC50 ([13]; Homo sapiens, MGC-803): 0.015 µg/mL (≈ 0.0244 µM) | IC90 ([13]; Homo sapiens, MGC-803): 0.07 µg/mL (≈ 0.114 µM) | IC50 ([14]; Homo sapiens): 0.028 µg/mL (≈ 0.0456 µM) | IC90 ([14]; Homo sapiens): > 16 µg/mL | IC50 ([15]; Homo sapiens, Jurkat): 0.012 µg/mL (≈ 0.0196 µM) | IC90 ([15]; Homo sapiens, Jurkat): ≥ 16 µg/mL | IC50 ([16]; Homo sapiens, K562/Adr): 0.06 µg/mL (≈ 0.0978 µM) | IC90 ([16]; Homo sapiens, K562/Adr): 0.75 µg/mL (≈ 1.22 µM) | IC50 ([17]; Homo sapiens): 0.008 µg/mL (≈ 0.013 µM) | IC90 ([17]; Homo sapiens): 0.02 µg/mL (≈ 0.0326 µM) | IC50 ([18]; Homo sapiens): 0.004 µg/mL (≈ 0.00652 µM) | IC90 ([18]; Homo sapiens): 0.007 µg/mL (≈ 0.0114 µM) | IC50 ([19]; Homo sapiens, Kasumi 1, MTT): 0.002 µg/mL (≈ 0.00326 µM) | IC90 ([19]; Homo sapiens, Kasumi 1, MTT): 0.005 µg/mL (≈ 0.00815 µM) | IC50 ([20]; Homo sapiens, RPMI-8226, MTT): 0.007 µg/mL (≈ 0.0114 µM) | IC90 ([20]; Homo sapiens, RPMI-8226, MTT): 0.029 µg/mL (≈ 0.0473 µM)
